From PubChem BioAssay (NCI)
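The compound was tested at five concentrations on cells cultured in 96-well plates, with a 48-hour exposure period. GI50 = concentration required for 50% inhibition of growth. Definition used: TGI = concentration required for complete inhibition of growth.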

Legend:
Assay in all cases: DTP human tumour cell line panel, 48 h
OVCAR-4 ovarian = tested on: OVCAR-4 ovarian
CCRF-CEM leukemia = tested on: CCRF-CEM leukemia
MDA-MB-435 = tested on: MDA-MB-435
RXF 393 renal = tested on: RXF 393 renal
EKVX NSCLC = tested on: EKVX NSCLC
BT-549 breast = tested on: BT-549 breast
OVCAR-8 ovarian = tested on: OVCAR-8 ovarian
NCI-H522 lung = tested on: NCI-H522 lung
MOLT-4 leukemia = tested on: MOLT-4 leukemia
M14 melanoma = tested on: M14 melanoma
HOP-62 NSCLC = tested on: HOP-62 NSCLC
PC-3 prostate = tested on: PC-3 prostate
UO-31 renal = tested on: UO-31 renal
NCI-H226 lung = tested on: NCI-H226 lung
MDA-MB-231 breast = tested on: MDA-MB-231 breast
SW-620 colon = tested on: SW-620 colon
A498 renal = tested on: A498 renal
NCI/ADR-RES ovarian = tested on: NCI/ADR-RES ovarian
SK-MEL-28 melanoma = tested on: SK-MEL-28 melanoma
SF-539 CNS = tested on: SF-539 CNS
KM12 colon = tested on: KM12 colon
K-562 leukemia = tested on: K-562 leukemia
MCF7 breast = tested on: MCF7 breast
SN12C renal = tested on: SN12C renal
TK-10 renal = tested on: TK-10 renal
SK-MEL-2 melanoma = tested on: SK-MEL-2 melanoma
LOX IMVI melanoma = tested on: LOX IMVI melanoma
CAKI-1 renal = tested on: CAKI-1 renal

Molecule `CCOC(=O)Nc1ccc2c3c(cccc13)-c1ccccc1-2` has a GI50 (OVCAR-4 ovarian) greater than 100 µM, a TGI (OVCAR-4 ovarian) greater than 100 µM and a GI50 (CCRF-CEM leukemia) of 7.85 µM. The TGI (CCRF-CEM leukemia) was greater than 100 µM, the GI50 (MDA-MB-435) was 862 nM and the TGI (MDA-MB-435) was 3.54 µM. The GI50 (RXF 393 renal) was 6.92 µM, the TGI (RXF 393 renal) was greater than 100 µM and the GI50 (EKVX NSCLC) was 2180 nM. For the same molecule, the TGI (EKVX NSCLC) was greater than 100 µM, the GI50 (BT-549 breast) was greater than 100 µM and the TGI (BT-549 breast) was greater than 100 µM. The GI50 (OVCAR-8 ovarian) was greater than 100 µM, the TGI (OVCAR-8 ovarian) was greater than 100 µM and the GI50 (NCI-H522 lung) was greater than 100 µM. It also gave a TGI (NCI-H522 lung) greater than 100 µM, a GI50 (MOLT-4 leukemia) of 8.5 µM and a TGI (MOLT-4 leukemia) greater than 100 µM. The GI50 (M14 melanoma) was 4.32 µM, the TGI (M14 melanoma) was greater than 100 µM and the GI50 (HOP-62 NSCLC) was 5.27 µM. It also gave a TGI (HOP-62 NSCLC) greater than 100 µM, a GI50 (PC-3 prostate) of 9.45 µM and a TGI (PC-3 prostate) greater than 100 µM. It also gave a GI50 (UO-31 renal) of 2590 nM, a TGI (UO-31 renal) greater than 100 µM and a GI50 (NCI-H226 lung) greater than 100 µM. It also gave a TGI (NCI-H226 lung) greater than 100 µM, a GI50 (MDA-MB-231 breast) of 2580 nM and a TGI (MDA-MB-231 breast) greater than 100 µM. The GI50 (SW-620 colon) was 3.92 µM, the TGI (SW-620 colon) was greater than 100 µM and the GI50 (A498 renal) was 4.68 µM. For the same molecule, the TGI (A498 renal) was greater than 100 µM, the GI50 (NCI/ADR-RES ovarian) was 4.32 µM and the TGI (NCI/ADR-RES ovarian) was greater than 100 µM. The GI50 (SK-MEL-28 melanoma) was 10.7 µM, the TGI (SK-MEL-28 melanoma) was greater than 100 µM and the GI50 (SF-539 CNS) was 5.65 µM. It also gave a TGI (SF-539 CNS) greater than 100 µM, a GI50 (KM12 colon) of 2320 nM and a TGI (KM12 colon) greater than 100 µM. The GI50 (K-562 leukemia) was 4.12 µM, the TGI (K-562 leukemia) was greater than 100 µM and the GI50 (MCF7 breast) was 1640 nM. For the same molecule, the TGI (MCF7 breast) was greater than 100 µM, the GI50 (SN12C renal) was 5.98 µM and the TGI (SN12C renal) was greater than 100 µM. For the same molecule, the GI50 (TK-10 renal) was greater than 100 µM, the TGI (TK-10 renal) was greater than 100 µM and the GI50 (SK-MEL-2 melanoma) was greater than 100 µM. For the same molecule, the TGI (SK-MEL-2 melanoma) was greater than 100 µM, the GI50 (LOX IMVI melanoma) was 4.77 µM and the TGI (LOX IMVI melanoma) was greater than 100 µM. It also gave a GI50 (CAKI-1 renal) of 3.29 µM and a TGI (CAKI-1 renal) greater than 100 µM.
